The values that follow come from patent US20250179051A1, “PYRIMIDINLY-OXY-QUINOLINE BASED HERBICIDAL COMPOUNDS” (SYNGENTA CROP PROTECTION AG, priority 2022, published 2025).

Common to all, as to assay type: in vivo
Common to all, as to settings: 250 g/ha, evaluated after 13 days, five-point scale

For assay [1], the system named is Amaranthus palmeri (AMAPA). Description: Post-emergence herbicide glasshouse test. In outline: (§1)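 Spray at 250 g/ha (unless stated), acetone/water 50:50 + 0.5% Tween 20; pre-em 1 d post-sowing, post-em after 8 d growth. Glasshouse 24/16 °C, 14 h light, 65% RH, watered twice daily. % damage read at 13 d, scored 1 (0–20%) to 5 (81–100%).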
Assay [2] concerns Amaranthus retoflexus (AMARE). Description: Post-emergence herbicide glasshouse test. The method in brief:
as §1

Assay [3] deals with Echinochloa crus-galli (ECHCG). Description: Post-emergence herbicide glasshouse test. The method in brief:
as §1

The subject of assay [4] is Ipomoea hederacea (IPOHE). Description: Post-emergence herbicide glasshouse test. In outline: as §1
Assay [5] deals with Setaria faberi (SETFA). Description: Post-emergence herbicide glasshouse test. In outline: as §1
The subject of assay [6] is Amaranthus palmeri (AMAPA). Description: Pre-emergence herbicide glasshouse test. In outline:
as §1

Assay [7] has as its system Amaranthus retoflexus (AMARE). Description: Pre-emergence herbicide glasshouse test. In outline: as §1
The subject of assay [8] is Echinochloa crus-galli (ECHCG). Description: Pre-emergence herbicide glasshouse test. In outline:
as §1

The test system of assay [9] is Ipomoea hederacea (IPOHE). Description: Pre-emergence herbicide glasshouse test. The method in brief: as §1
Assay [10] concerns Setaria faberi (SETFA). Description: Pre-emergence herbicide glasshouse test. In outline: as §1

With `FC(F)(F)c1nc(CCCC2CC2)c2c(Oc3ncc(Cl)cn3)cccc2n1` [Compound 1.019], the “percentage damage caused to the plant, AMAPA” value in assay [1] and in assay [6] was 5 (5=81-100%) each time. Further, the “percentage damage caused to the plant, AMARE” value in assay [2] is reported as 5 (5=81-100%); in assay [7] it was 4 (4=61-80%). The results for the “percentage damage caused to the plant, ECHCG” value in [3] and in assay [8] were 2 (2=21-40%) and 4 (4=61-80%), respectively. In addition, the figures for the “percentage damage caused to the plant, IPOHE” value in assay [4] and in assay [9] were 3 (3=41-60%) and 1 (1=0-20%), respectively. Besides, the “percentage damage caused to the plant, SETFA” value with Setaria faberi (SETFA) [5] and in the assay on Setaria faberi (SETFA) [10] was 5 (5=81-100%) throughout.
